Measurements published in ChEMBL document CHEMBL1201862, “PubChem BioAssay data set” (2004).
Active and inactive are the calls of the source.

Experiments:
ORF 73 = target: T1, ORF 73 (Human herpesvirus 8, UniProt O40947); experiment: inhibitors of C-LANA binding to LBS DNA, dose response, biochemical, fluorescence polarization, cherry-picked samples (AID 504725); parameters: species or system Human gammaherpesvirus 8;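 also: fluorescence polarization of a labeled DNA duplex reporting LANA DNA binding; potency is for inhibitors that block LANA binding to the DNA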
T1 sequence (O40947 whole entry): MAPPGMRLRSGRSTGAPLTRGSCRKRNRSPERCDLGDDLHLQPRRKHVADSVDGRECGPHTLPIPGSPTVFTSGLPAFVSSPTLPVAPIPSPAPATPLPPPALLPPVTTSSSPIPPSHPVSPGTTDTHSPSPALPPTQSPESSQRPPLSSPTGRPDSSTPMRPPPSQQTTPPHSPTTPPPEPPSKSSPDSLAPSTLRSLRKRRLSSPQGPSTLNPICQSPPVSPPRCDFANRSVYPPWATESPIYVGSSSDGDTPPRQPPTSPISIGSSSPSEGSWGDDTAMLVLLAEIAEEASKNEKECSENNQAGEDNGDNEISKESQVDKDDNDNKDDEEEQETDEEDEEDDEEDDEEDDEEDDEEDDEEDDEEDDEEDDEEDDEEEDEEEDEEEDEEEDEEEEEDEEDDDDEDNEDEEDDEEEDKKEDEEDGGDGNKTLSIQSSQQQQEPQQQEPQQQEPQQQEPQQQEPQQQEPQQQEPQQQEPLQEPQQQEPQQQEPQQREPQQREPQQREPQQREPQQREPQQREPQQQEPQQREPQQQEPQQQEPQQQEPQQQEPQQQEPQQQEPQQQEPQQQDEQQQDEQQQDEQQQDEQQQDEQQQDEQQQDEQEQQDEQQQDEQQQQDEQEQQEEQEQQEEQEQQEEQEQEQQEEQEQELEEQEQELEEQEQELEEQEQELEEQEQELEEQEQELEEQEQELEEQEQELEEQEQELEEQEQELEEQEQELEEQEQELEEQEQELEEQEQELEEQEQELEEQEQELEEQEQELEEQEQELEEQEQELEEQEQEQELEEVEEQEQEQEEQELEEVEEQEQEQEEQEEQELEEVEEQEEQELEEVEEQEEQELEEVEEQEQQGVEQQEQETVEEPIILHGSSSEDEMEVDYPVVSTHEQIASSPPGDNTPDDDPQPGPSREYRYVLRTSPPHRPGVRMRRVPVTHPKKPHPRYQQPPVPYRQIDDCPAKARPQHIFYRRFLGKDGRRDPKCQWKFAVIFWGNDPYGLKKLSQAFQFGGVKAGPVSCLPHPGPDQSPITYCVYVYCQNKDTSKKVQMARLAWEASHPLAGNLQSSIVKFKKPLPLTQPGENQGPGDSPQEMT

[1] = target: T2, Corticotropin-releasing factor receptor 2/Corticotropin-releasing factor-binding protein (Homo sapiens, UniProt P24387+Q13324); experiment: activators of CRF receptor 2 with binding protein – uHTS hits, confirmation (AID 602473); type: functional; settings: read-out: EC50_Mean
T2 sequence (Q13324 whole entry): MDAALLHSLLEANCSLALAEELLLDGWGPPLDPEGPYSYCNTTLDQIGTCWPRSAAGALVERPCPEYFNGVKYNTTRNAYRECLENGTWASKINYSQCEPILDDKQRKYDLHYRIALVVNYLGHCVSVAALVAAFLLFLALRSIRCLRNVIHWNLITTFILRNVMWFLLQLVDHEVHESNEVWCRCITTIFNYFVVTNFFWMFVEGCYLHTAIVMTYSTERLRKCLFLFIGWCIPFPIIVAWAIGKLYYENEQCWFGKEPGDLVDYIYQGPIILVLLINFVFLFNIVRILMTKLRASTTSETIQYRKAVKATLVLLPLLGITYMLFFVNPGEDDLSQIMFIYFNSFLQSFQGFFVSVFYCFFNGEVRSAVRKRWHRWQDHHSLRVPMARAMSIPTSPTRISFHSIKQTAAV
T2 sequence (P24387 whole entry): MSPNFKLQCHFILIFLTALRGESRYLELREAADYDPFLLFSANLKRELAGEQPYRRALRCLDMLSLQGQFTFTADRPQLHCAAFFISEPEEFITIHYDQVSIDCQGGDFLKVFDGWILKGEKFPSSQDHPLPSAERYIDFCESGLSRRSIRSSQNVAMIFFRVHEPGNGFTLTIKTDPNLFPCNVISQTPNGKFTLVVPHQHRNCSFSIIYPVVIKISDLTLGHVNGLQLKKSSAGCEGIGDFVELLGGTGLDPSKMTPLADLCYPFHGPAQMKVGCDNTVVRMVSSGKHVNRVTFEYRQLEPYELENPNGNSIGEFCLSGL

Keap1/Nrf2 = Keap1/Nrf2 (Homo sapiens, UniProt Q14145); experiment: Keap1-Nrf2 protein-protein interaction inhibitors, dose response, biochemical, fluorescence polarization, cherry-picked samples (AID 588683)
[2] = target: DNA dC->dU-editing enzyme APOBEC-3G (Homo sapiens, UniProt Q9HC16); experiment: Dose Response confirmation of small molecule APOBEC3G DNA Deaminase Inhibitors via a fluorescence-based single-stranded DNA deaminase assay. [Related pubchem assays (depositor defined):AID493012, AID493028]; type: functional
[3] = target: T3, Carboxy-terminal domain RNA polymerase II polypeptide A small phosphatase 1 (Homo sapiens, UniProt Q9GZU7); experiment: inhibitors of CTDSP1, concentration-response testing, biochemical assay, absorbance-based, actives from ultra-high-throughput screening (AID 540297); type: functional
T3 sequence (Q9GZU7 whole entry): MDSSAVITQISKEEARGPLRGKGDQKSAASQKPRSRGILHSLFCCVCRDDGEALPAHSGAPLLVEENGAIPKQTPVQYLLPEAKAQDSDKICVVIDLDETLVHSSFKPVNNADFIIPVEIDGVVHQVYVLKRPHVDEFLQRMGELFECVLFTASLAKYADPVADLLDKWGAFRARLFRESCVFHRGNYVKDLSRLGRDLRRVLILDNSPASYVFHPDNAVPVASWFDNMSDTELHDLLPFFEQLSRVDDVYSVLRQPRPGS

[4] = target: T4, Small ubiquitin-related modifier 1 (Homo sapiens, UniProt P63165); experiment: inhibitors of SUMO1 peptide binding, dose response, biochemical, fluorescence polarization, uHTS hits (AID 624382); type: functional; settings: read-out: IC50_Mean
[5] = target: T5, Apoptotic protease-activating factor 1 (Homo sapiens, UniProt O14727); experiment: activation of Apaf-1 mediated apoptosis – fluorescent, uHTS hits, dose response (AID 588554); type: functional
T5 sequence (O14727 whole entry): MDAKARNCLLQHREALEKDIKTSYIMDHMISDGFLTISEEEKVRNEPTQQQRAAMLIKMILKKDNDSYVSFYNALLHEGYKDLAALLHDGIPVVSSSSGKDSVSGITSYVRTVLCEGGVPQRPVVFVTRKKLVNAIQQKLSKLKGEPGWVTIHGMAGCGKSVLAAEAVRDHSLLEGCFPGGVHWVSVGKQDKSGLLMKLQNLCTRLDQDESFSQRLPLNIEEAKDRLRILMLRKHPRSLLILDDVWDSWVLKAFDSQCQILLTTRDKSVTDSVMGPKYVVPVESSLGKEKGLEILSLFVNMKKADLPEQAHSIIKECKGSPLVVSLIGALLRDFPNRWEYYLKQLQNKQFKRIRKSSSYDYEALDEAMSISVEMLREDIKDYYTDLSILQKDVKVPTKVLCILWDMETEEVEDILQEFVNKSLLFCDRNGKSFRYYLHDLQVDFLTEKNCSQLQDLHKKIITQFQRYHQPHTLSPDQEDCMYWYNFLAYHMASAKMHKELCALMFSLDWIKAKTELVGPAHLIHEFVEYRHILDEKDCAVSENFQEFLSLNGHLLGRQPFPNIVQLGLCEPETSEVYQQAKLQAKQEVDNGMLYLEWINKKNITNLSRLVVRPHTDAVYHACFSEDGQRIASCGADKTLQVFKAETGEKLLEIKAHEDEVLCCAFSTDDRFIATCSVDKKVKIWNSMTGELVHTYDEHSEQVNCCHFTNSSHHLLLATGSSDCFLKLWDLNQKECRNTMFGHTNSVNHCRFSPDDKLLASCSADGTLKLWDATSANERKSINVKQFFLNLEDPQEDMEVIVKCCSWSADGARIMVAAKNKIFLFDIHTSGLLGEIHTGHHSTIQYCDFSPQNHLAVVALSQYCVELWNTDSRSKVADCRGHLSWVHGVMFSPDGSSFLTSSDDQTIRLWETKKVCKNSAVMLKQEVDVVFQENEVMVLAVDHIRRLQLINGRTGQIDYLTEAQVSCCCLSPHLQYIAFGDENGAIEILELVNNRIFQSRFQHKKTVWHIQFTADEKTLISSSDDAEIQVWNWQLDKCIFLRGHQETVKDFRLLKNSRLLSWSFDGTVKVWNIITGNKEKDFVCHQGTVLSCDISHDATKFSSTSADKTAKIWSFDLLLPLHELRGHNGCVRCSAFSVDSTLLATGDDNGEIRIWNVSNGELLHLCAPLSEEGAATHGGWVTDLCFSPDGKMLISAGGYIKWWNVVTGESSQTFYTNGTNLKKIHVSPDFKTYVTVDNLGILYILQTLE

[6] = target: DNA dC->dU-editing enzyme APOBEC-3A (Homo sapiens, UniProt P31941); experiment: APOBEC3A DNA deaminase inhibitors, dose response, biochemical (AID 504722); type: functional
[7] = target: T4, Small ubiquitin-related modifier 1; experiment: inhibitors of SUMO1 partner interactions, dose response, biochemical, FRET (AID 624383); type: functional; settings: read-out: IC50_Mean
Hexokinase-1 = target: T6, Hexokinase-1 (Homo sapiens, UniProt P19367); experiment: SAR analysis of small molecule inhibitors of hexokinase domain containing I (HKDC1) in the hexokinase 1 selectivity assay. [Related pubchem assays (depositor defined):AID493160, AID493190]; type: functional
T6 sequence (P19367 whole entry): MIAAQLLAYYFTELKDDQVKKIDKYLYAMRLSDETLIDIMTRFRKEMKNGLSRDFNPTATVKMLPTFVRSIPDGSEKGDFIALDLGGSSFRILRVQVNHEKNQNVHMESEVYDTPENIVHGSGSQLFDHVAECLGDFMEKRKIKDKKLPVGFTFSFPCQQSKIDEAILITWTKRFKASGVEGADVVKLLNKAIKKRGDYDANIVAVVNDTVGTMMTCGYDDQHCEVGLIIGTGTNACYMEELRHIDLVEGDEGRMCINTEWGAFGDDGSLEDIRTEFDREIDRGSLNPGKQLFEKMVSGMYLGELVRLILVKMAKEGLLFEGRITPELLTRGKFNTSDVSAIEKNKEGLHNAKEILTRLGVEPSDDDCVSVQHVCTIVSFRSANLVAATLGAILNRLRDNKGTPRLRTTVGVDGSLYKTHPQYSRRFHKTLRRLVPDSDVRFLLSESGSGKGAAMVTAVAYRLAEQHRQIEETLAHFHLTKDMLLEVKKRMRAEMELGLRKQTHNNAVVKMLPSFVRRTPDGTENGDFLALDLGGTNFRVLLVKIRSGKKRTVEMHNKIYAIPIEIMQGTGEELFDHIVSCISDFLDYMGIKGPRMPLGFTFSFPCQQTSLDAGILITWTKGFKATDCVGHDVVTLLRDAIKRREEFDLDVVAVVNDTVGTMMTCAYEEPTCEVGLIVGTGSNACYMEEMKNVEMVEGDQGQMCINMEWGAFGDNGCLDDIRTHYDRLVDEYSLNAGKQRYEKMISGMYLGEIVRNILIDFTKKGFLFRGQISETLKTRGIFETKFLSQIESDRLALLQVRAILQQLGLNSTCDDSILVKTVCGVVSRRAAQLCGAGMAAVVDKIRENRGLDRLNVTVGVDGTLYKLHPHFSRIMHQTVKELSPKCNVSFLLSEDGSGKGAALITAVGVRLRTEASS

Hexokinase HKDC1 = target: T7, Hexokinase HKDC1 (Homo sapiens, UniProt Q2TB90); experiment: SAR analysis of small molecule inhibitors of hexokinase domain containing I (HKDC1). [Related pubchem assays (depositor defined):AID493160, AID493190]; type: functional
T7 sequence (Q2TB90 whole entry): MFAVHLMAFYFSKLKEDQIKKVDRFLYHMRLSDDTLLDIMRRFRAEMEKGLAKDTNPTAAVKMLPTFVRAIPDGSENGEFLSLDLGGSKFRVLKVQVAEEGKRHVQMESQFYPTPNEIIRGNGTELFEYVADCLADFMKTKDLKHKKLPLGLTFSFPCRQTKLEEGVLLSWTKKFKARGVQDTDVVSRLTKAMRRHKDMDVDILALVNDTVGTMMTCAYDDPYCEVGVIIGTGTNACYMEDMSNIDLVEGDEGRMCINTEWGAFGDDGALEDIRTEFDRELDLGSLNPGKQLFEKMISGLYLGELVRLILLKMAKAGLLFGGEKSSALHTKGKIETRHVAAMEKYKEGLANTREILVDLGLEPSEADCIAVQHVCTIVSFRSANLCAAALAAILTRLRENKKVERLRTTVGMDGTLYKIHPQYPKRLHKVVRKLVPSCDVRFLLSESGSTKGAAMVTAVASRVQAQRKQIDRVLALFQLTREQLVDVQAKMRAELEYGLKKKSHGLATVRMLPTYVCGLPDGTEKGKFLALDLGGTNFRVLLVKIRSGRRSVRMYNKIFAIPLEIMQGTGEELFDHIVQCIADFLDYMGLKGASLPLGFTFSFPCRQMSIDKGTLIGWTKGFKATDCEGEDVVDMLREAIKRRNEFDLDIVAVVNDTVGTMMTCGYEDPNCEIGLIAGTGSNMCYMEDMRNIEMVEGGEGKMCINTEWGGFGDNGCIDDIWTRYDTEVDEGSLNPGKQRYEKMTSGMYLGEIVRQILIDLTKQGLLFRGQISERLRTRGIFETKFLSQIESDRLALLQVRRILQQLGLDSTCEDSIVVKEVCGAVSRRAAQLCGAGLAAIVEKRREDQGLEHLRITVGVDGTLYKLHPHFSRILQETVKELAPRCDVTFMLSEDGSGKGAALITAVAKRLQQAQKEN

T4 sequence (P63165 whole entry): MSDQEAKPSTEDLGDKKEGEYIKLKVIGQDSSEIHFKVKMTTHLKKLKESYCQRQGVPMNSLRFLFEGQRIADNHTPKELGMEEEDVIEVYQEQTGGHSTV
Chain of Keap1/Nrf2 (Q16236 whole entry): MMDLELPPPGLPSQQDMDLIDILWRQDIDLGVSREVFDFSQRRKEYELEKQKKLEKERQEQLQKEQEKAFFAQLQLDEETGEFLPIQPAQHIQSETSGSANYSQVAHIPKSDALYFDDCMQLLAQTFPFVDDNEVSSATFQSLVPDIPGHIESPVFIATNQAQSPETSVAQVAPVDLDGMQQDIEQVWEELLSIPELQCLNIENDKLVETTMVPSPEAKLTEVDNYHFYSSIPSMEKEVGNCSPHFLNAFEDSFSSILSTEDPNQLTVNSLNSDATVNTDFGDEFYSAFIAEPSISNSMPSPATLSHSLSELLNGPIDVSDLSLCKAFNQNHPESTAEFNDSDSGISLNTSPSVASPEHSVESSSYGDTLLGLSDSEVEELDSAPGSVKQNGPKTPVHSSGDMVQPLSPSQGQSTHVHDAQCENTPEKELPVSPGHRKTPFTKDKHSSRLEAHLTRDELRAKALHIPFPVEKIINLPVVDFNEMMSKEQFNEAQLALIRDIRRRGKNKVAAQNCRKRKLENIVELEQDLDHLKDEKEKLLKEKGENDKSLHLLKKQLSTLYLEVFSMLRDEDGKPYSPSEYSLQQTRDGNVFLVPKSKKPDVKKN
Chain of Keap1/Nrf2 (Q14145 whole entry): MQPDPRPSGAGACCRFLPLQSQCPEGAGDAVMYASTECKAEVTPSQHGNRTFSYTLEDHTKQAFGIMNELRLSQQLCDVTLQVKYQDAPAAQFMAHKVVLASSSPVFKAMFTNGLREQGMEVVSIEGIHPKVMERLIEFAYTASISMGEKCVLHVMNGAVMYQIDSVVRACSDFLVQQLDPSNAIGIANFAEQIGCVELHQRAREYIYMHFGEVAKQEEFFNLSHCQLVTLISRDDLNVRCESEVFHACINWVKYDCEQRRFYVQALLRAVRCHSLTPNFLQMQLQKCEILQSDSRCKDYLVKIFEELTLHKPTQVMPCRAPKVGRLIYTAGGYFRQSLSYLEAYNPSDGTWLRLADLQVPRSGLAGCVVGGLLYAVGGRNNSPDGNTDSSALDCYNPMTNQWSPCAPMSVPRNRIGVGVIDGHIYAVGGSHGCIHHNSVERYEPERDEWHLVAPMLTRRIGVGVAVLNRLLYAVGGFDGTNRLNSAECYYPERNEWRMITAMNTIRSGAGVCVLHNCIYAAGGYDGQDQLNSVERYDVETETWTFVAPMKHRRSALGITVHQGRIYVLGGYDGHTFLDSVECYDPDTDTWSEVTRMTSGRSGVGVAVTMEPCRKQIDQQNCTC
Chain of DNA dC->dU-editing enzyme APOBEC-3G (Q9HC16 whole entry, the tested form may be a part): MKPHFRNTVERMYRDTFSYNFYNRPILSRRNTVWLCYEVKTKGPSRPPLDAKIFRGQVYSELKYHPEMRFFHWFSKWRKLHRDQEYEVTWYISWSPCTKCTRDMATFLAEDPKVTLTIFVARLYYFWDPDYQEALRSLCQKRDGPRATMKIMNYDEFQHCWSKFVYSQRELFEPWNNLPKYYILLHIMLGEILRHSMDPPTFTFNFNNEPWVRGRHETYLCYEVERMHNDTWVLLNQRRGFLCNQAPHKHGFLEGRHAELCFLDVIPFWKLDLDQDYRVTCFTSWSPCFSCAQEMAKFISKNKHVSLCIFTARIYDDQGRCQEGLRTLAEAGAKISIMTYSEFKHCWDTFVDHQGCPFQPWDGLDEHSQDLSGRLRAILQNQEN
Chain of DNA dC->dU-editing enzyme APOBEC-3A (P31941 whole entry): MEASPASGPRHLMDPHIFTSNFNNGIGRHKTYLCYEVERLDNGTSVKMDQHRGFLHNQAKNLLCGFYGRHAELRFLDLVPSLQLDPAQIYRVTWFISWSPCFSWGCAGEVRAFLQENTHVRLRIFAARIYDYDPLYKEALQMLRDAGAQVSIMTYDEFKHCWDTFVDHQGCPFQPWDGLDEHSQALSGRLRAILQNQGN

SMILES | AC50 (ORF 73) | AC50 (Keap1/Nrf2) | IC50 (Hexokinase-1) | IC50 (Hexokinase HKDC1) | further results
CCC1(c2ccccc2)NC(=O)N(CC(=O)Nc2ccc(OC)nc2)C1=O (stereo not given) | 8.04 µM (active) | 5.31 µM (active) |  |  | EC50 [1]: 18.6 µM (active)
Cc1cc[n+](-c2[n-]c(=O)sc2/C=N/NC(=O)c2ccccc2)cc1C | 13.3 µM (active) | 11.8 µM (active) |  |  | 
C=C(C)C(=O)Nc1cccc(C2=NOC3(C2)C[C@@H](C(N)=O)N(C(=O)c2cc([N+](=O)[O-])cc([N+](=O)[O-])c2C)C3)c1 (stereo not given in full) |  |  |  |  | IC50 [2]: 14 µM (active); IC50 [3]: 4.59 µM (active); IC50 [4]: > 66.6 µM (inactive); EC50 [5]: 10.8 µM (active); IC50 [6]: > 100 µM (inactive); IC50 [7]: 8.54 µM (active)
O=c1c2ccccc2nc(/C=C/c2ccc(O)cc2)n1Cc1ccccc1 |  |  | > 80 µM (inactive) | > 80 µM (inactive) | 
Cc1cc2nnc(SCC(=O)Nc3cccc(S(=O)(=O)N4CCCCC4)c3)n2c2ccccc12 |  |  | > 80 µM (inactive) | > 80 µM (inactive) | 
